One assay addresses Carbonic anhydrase 1 (Homo sapiens, UniProt P00915). Kind of assay: Inhibition of recombinant human carbonic anhydrase I assessed as inhibition constant incubated for 15 mins by phenol red dye based stopped-flow CO2 hydration assay.
The target of the next assay is Carbonic anhydrase 2 (Homo sapiens, UniProt P00918). The assay is described as follows: Inhibition of recombinant human carbonic anhydrase II assessed as inhibition constant incubated for 15 mins by phenol red dye based stopped-flow CO2 hydration assay.
The next assay deals with Carbonic anhydrase 4 (Homo sapiens, UniProt P22748). Kind of assay: Inhibition of recombinant human carbonic anhydrase IV assessed as inhibition constant incubated for 15 mins by phenol red dye based stopped-flow CO2 hydration assay.
Chain of Carbonic anhydrase 4 (P22748 whole entry): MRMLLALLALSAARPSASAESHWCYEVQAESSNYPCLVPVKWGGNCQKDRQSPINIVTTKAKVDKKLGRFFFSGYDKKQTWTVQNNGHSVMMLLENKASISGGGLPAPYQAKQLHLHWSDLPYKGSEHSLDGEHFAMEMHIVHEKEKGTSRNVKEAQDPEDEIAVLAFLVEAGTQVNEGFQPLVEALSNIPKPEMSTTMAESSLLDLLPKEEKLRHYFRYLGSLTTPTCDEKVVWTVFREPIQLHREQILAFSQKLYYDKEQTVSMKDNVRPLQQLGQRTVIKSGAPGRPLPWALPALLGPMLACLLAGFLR
Another assay addresses Carbonic anhydrase 7 (Homo sapiens, UniProt P43166). Kind of assay: Inhibition of recombinant human carbonic anhydrase VII assessed as inhibition constant incubated for 15 mins by phenol red dye based stopped-flow CO2 hydration assay.
Another assay deals with Carbonic anhydrase 9 (Homo sapiens, UniProt Q16790). Kind of assay: Inhibition of recombinant human carbonic anhydrase IX assessed as inhibition constant incubated for 15 mins by phenol red dye based stopped-flow CO2 hydration assay.
The species named for assay [1] is Homo sapiens. Kind of assay: Selectivity index, ratio of Ki for inhibition of recombinant human carbonic anhydrase I to Ki for inhibition of recombinant human carbonic anhydrase VII.
The species named for assay [2] is Homo sapiens. Kind of assay: Selectivity index, ratio of Ki for inhibition of recombinant human carbonic anhydrase II to Ki for inhibition of recombinant human carbonic anhydrase VII.
For assay [3], the species on record is Homo sapiens. The assay is described as follows: Selectivity index, ratio of Ki for inhibition of recombinant human carbonic anhydrase I to Ki for inhibition of recombinant human carbonic anhydrase IX.
For assay [4], the species on record is Homo sapiens. The assay is described as follows: Selectivity index, ratio of Ki for inhibition of recombinant human carbonic anhydrase II to Ki for inhibition of recombinant human carbonic anhydrase IX.

The source of these data is ChEMBL document CHEMBL5338821, “6-Substituted Triazolyl Benzoxaboroles as Selective Carbonic Anhydrase Inhibitors: In Silico Design, Synthesis, and X-ray Crystallography” (J Med Chem, 2023).

Chain of Carbonic anhydrase 7 (P43166 whole entry): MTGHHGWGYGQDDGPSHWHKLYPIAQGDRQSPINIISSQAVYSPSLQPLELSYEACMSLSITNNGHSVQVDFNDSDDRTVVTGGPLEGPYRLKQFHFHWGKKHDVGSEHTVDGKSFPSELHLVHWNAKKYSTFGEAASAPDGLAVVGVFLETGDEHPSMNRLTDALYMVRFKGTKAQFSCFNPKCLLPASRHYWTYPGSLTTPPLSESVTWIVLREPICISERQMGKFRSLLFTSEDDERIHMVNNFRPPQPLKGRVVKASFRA
Chain of Carbonic anhydrase 1 (P00915 whole entry): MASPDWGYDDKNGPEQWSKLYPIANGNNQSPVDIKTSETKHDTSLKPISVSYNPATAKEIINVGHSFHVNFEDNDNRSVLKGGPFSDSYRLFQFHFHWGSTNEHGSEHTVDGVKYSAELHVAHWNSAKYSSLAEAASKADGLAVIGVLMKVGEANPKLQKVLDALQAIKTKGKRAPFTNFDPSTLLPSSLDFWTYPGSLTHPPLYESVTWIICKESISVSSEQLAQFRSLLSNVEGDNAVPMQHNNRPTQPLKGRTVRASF

The Ki is a dissociation constant, usually derived from enzyme kinetics or from competition with a known ligand. For the compound `OB1OCc2ccc(-n3cc(CSc4ccccc4)nn3)cc21`, the inhibitory constant (Ki) at Carbonic anhydrase 1 was 300 nM; on Carbonic anhydrase 2 it was 270 nM; at Carbonic anhydrase 4, 1610 nM; at Carbonic anhydrase 7, 49.2 nM; on Carbonic anhydrase 9 it was 33.2 nM. The Ratio Ki in the assay filed under Homo sapiens [1] and in the assay filed under Homo sapiens [2] was 6 each time.
With `CCOC(=O)c1cn(-c2ccc3c(c2)B(O)OC3)nn1`, the Ki on Carbonic anhydrase 1 is 2510 nM; at Carbonic anhydrase 2 it was 796 nM; at Carbonic anhydrase 4, 2480 nM; on Carbonic anhydrase 7 it was 441 nM; on Carbonic anhydrase 9, 337 nM.
In the case of `CC(C)(C)OC(=O)NCc1cn(-c2ccc3c(c2)B(O)OC3)nn1`, the Ki came to 737 nM on Carbonic anhydrase 1; 461 nM on Carbonic anhydrase 2; 730 nM at Carbonic anhydrase 4; 135 nM on Carbonic anhydrase 7; 75.2 nM on Carbonic anhydrase 9.
`COc1ccc(OCc2cn(-c3ccc4c(c3)B(O)OC4)nn2)cc1`: the inhibition constant (Ki) worked out at 863 nM on Carbonic anhydrase 1; 258 nM on Carbonic anhydrase 2; 1660 nM at Carbonic anhydrase 4; 88.1 nM on Carbonic anhydrase 7; 52 nM at Carbonic anhydrase 9.
Regarding `OCc1cn(-c2ccc3c(c2)B(O)OC3)nn1`, the Ki at Carbonic anhydrase 1 worked out at 1090 nM; on Carbonic anhydrase 2, 873 nM; at Carbonic anhydrase 4 it was 928 nM; at Carbonic anhydrase 7, 141 nM; on Carbonic anhydrase 9, 145 nM.
As to `COc1cccc(OCc2cn(-c3ccc4c(c3)B(O)OC4)nn2)c1`, the Ki at Carbonic anhydrase 1 came to 1100 nM; on Carbonic anhydrase 2, 183 nM; on Carbonic anhydrase 4 it was 1930 nM; at Carbonic anhydrase 7, 124 nM; at Carbonic anhydrase 9, 32 nM.
Turning to `[N-]=[N+]=Nc1ccc2c(c1)B(O)OC2`, the Ki on Carbonic anhydrase 1 came to 3040 nM; on Carbonic anhydrase 2, 350 nM; at Carbonic anhydrase 4, 3120 nM; on Carbonic anhydrase 7, 432 nM; at Carbonic anhydrase 9 it was 539 nM.
For the compound `OB1OCc2ccc(-n3cc(COc4ccccc4)nn3)cc21`, the Ki at Carbonic anhydrase 1 worked out at 343 nM; on Carbonic anhydrase 2, 205 nM; on Carbonic anhydrase 4, 1380 nM; on Carbonic anhydrase 7, 56.2 nM; on Carbonic anhydrase 9, 29.1 nM.
The matching figures for `OB1OCc2ccc(-n3cc(-c4ccccc4)nn3)cc21`: 740 nM, 362 nM, 1180 nM, 262 nM and 122 nM.
As for `O=c1ccc2ccc(OCc3cn(-c4ccc5c(c4)B(O)OC5)nn3)cc2o1`, the Ki was 2600 nM at Carbonic anhydrase 1; 375 nM at Carbonic anhydrase 2; 3180 nM on Carbonic anhydrase 4; 70.2 nM on Carbonic anhydrase 7; 111 nM at Carbonic anhydrase 9.
`O=C(O)c1cccc(-c2cn(-c3ccc4c(c3)B(O)OC4)nn2)c1`: the inhibition constant Ki on Carbonic anhydrase 1 turned out to be 505 nM; on Carbonic anhydrase 2 it was 310 nM; on Carbonic anhydrase 4, 749 nM; at Carbonic anhydrase 7 it was 67.5 nM; on Carbonic anhydrase 9 it was 114 nM.
As to `OB1OCc2ccc(-n3cc(C4CC4)nn3)cc21`, the inhibitory constant (Ki) on Carbonic anhydrase 1 is 2320 nM; at Carbonic anhydrase 2 it was 1080 nM; at Carbonic anhydrase 4, 3220 nM; on Carbonic anhydrase 7 it was 474 nM; at Carbonic anhydrase 9, 389 nM.
With `OB1OCc2ccc(-n3cc(COc4ccc(F)cc4)nn3)cc21`, the Ki amounted to 336 nM at Carbonic anhydrase 1; 186 nM on Carbonic anhydrase 2; 1050 nM at Carbonic anhydrase 4; 35.6 nM on Carbonic anhydrase 7; 28 nM on Carbonic anhydrase 9. In addition, the Ratio Ki in the assay listed under Homo sapiens [1], in the assay filed under Homo sapiens [2], in the assay filed under Homo sapiens [3] and in the assay filed under Homo sapiens [4] was 6 in each case.
Take `OCCc1cn(-c2ccc3c(c2)B(O)OC3)nn1`: the inhibition constant (Ki) at Carbonic anhydrase 1 was found to be 1460 nM; at Carbonic anhydrase 2, 494 nM; on Carbonic anhydrase 4, 497 nM; at Carbonic anhydrase 7, 81.7 nM; on Carbonic anhydrase 9, 70.4 nM.
